Experiments:
Assay type in all cases: cell-based
Adenovirus Type-4 = assay: Viral Suspension Assay, Adenovirus Type-4; details: both 30 ppm and 99 ppm
Method: (§1) The Viral Suspension Assay was used to evaluate the antiviral properties of Alexidine against Adenovirus Type-4, Adenovirus Type-8 and Adenovirus Type-19 and Cytomegalovirus when exposed in suspension for 1, 2, 5, and 10 minutes. The presence of virus (infectivity) was determined by monitoring the virus specific cytopathic effect (CPE) on an appropriate indicator cell line, rabbit kidney. Results are reported as Percent (%) Reduction in virus titer as compared to the corresponding virus control titer (Table 1). The titer of the virus controls were 7.5 log10 following the one minute exposure time; 7.0 log10 following the two minute exposure time; and 7.75 log10 following both the five and ten minute exposure times.

[1] = system: Herpes simplex virus type 1; assay: Viral Suspension Assay, HSV-1 (CPE on rabbit kidney indicator cells)
Method: as §1, with “Herpes simplex virus type 1” for “Adenovirus Type-4, Adenovirus Type-8 and Adenovirus Type-19 and Cytomegalovirus”

Adenovirus Type-8 = assay: Viral Suspension Assay, Adenovirus Type-8; details: both 30 ppm and 99 ppm
Method: as §1

Cytomegalovirus = assay: Viral Suspension Assay, Cytomegalovirus; details: both 30 ppm and 99 ppm
Method: as §1

SMILES: CCCCC(CC)CNC(=N)NC(=N)NCCCCCCNC(=N)NC(=N)NCC(CC)CCCC (centres unmarked) [Alexidine, 1,1′-hexamethylene-bis[5-(2-ethylhexyl)biguanide]]
- Effectiveness against Adenovirus Type-4 (in words) (Adenovirus Type-4): somewhat effective
- Effectiveness against herpes simplex type-1 virus (in words) ([1]; both 30 ppm and 99 ppm): effective agents
- Overall activity against Herpes Simplex-1 (in words) ([1]; summary statement): potent antimicrobial agent
- Effectiveness against Adenovirus Type-8 (in words) (Adenovirus Type-8): somewhat effective
- Effectiveness against Cytomegalovirus (in words) (Cytomegalovirus): somewhat effective

From US20070141092A1, “BIGUANIDE COMPOSITION AND METHOD OF TREATMENT AND PREVENTION OF VIRAL INFECTIONS” (priority 2005, published 2007)
